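Following 48 hours of exposure in 96-well plates, responses at five concentrations were used to interpolate endpoints linearly. TGI: total growth inhibition.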
Key:
Experiment in all cases: growth of human tumour cells (NCI), 48 h
[1] = test system: CAKI-1 renal
[2] = test system: LOX IMVI melanoma
[3] = test system: NCI-H226 lung
[4] = test system: RPMI-8226 leukemia
[5] = test system: RXF 393 renal
[6] = test system: SK-MEL-28 melanoma
[7] = test system: SK-OV-3 ovarian
[8] = test system: SW-620 colon
[9] = test system: T-47D breast
[10] = test system: KM12 colon

| Structure (SMILES) | TGI [1] | TGI [2] | TGI [3] | TGI [4] | TGI [5] | TGI [6] | TGI [7] | TGI [8] | TGI [9] | TGI [10] |
| --- | --- | --- | --- | --- | --- | --- | --- | --- | --- | --- |
| COC1CC(N)(c2ccccc2)C(O)C(C)O1 (centres undefined) | > 100 µM | > 100 µM | > 100 µM | > 100 µM | > 100 µM | > 100 µM | > 100 µM | > 100 µM | > 100 µM |  |
| CC(N=NNc1ccc(-c2nc3ccccc3[nH]2)cc1)C(=O)O (centres undefined) | > 100 µM | > 100 µM | > 100 µM | > 100 µM | > 100 µM | > 100 µM | > 100 µM | > 100 µM | > 100 µM | > 100 µM |
| O=c1[nH]/c(=C/c2ccc(OCc3ccccc3)cn2)c(=O)[nH]/c1=C/c1ccccc1 | > 100 µM | > 100 µM |  | > 100 µM | > 100 µM | > 100 µM | > 100 µM | > 100 µM | > 100 µM | > 100 µM |
| Cc1ccc(C(=N)c2ccccc2Cc2cccc3ccccc23)c2ccccc12 | > 100 µM | > 100 µM | > 100 µM |  | > 100 µM | > 100 µM | > 100 µM | > 100 µM | > 100 µM | > 100 µM |
| COc1cc(/C=C2\C(=O)N(c3cccc([N+](=O)[O-])c3)C(c3ccccc3)S2(=O)=O)cc(OC)c1OC (centres undefined) | > 100 µM | > 100 µM | > 100 µM | > 100 µM | > 100 µM | > 100 µM | > 100 µM | > 100 µM | > 100 µM | > 100 µM |
| COc1ccc2c(c1)C(=O)CC1c3cnccc3C(=O)N21 (centres undefined) | > 100 µM | > 100 µM | > 100 µM | > 100 µM | > 100 µM | > 100 µM | > 100 µM | > 100 µM | > 100 µM | > 100 µM |
| CC(=O)NC1C(OCc2ccccc2)OC(CO)C(O)C1OCC(=O)N1CCCC1C(=O)N[C@@H](CCC(=O)NCCCCNc1c2ccccc2nc2cccc([N+](=O)[O-])c12)C(N)=O (some centres undefined) | > 100 µM |  | > 100 µM | > 100 µM |  | > 100 µM | > 100 µM | 65.7 µM | > 100 µM | > 100 µM |
| CCCCCOc1ccc(C=Nc2ccc(CCc3ccc(N=Cc4ccc(OCCCCC)cc4)cc3)cc2)cc1 |  | > 100 µM | > 100 µM | > 100 µM | > 100 µM | > 100 µM | > 100 µM | > 100 µM |  | > 100 µM |
| c1ccc(-c2csc3c4ccccc4c4ccccc4[n+]23)cc1 | > 36 µM | 16.9 µM | 11.5 µM | > 100 µM | 26.7 µM | 7.96 µM | 38.5 µM | 17.4 µM |  | 3.36 µM |
| C=CCSC1=N/C(=C\c2ccc(Cl)cc2)C(=O)N1CC=C | > 100 µM | > 100 µM |  | 52.9 µM | 45.3 µM | > 100 µM | > 100 µM | > 100 µM | 63.5 µM | 97.7 µM |
| COc1ccc(N2CC(=O)N(C(=O)COc3ccc(OCC(=O)N4C(=O)CN(c5ccc(OC)cc5)C4=S)cc3)C2=S)cc1 | > 100 µM |  | > 100 µM | > 100 µM | > 100 µM | > 100 µM | > 100 µM | > 100 µM |  | > 100 µM |
